Assay results: article PMC9727064, “Performance assessment and economic analysis of a human Liver-Chip for predictive toxicology” (Communications Medicine, 2022)
Where “and” joins values, the source holds several entries; their conditions need not be identical. Identical values can stand only once. Entries after “also recorded” stand apart in the source; their conditions may differ. Like-named read-outs stand apart in the source and are kept apart here.

Tests used:
[1] = human, total plasma Cmax, cited from earlier work
[2] = tested on: human Liver-Chip (hepatocytes and non-parenchymal cells); details: for Morphology Score: injury score 0-4, averaged, one line per replicate chip
Method: At least four to six brightfield images were acquired per chip for morphology analysis. […] Brightfield images were acquired across three fields of view on days 1, 3, and 7 for each cycle. Cytotoxicity classification was performed while acquiring images for both NPCs and hepatocytes. Images were then scored zero to four by blinded individuals (n = 2) based on severity of agglomeration of cell debris for both channels. The scoring matrix and representative images have been included in the supplement (Supplementary Fig. 1).
Hepatocyte layer on Chips
Non-parenchymal cell layer on Chips
Supplementary Figure 1. (a) Representative brightfield images to depict the cellular morphology score in the top channel of the Liver-Chip which contains hepatocytes. A score of 0 represents no hepatotoxicity detected, which is defined by 95-100% healthy hepatocyte morphology, hexagonal shape containing binucleated cells, clear cell cytoplasm, distinctive cell junctions and less than 5% dead cells. A score of 1 […]
cells. A score of 2 represents mild hepatotoxicity with > 70% monolayer of hepatocytes visible, evidence that cells have begun to lose their distinct cell junctions, many cells contain a granulated cytoplasm but < 30% are dead cells. A score of 3 represents moderate hepatotoxicity with severe granulation of cytoplasm and most of the cells have lost their junctions. Approximately 50% of the cells are considered dead. A score of 4 represents severe hepatotoxicity with agglomeration of cell debris and > 50% of the cells are considered dead. The pores on the membrane become visible as there is no longer a cellular monolayer. (b) Representative brightfield images to depict the cellular morphology score in the bottom channel of the Liver-Chip which contains non-parenchymal cells. A score of 0 represents no cytotoxicity detected, with an intact monolayer and <1% of the cells are dead. A score of 1 represents at least 90% of the monolayer is present and there are <10% dead cells. A score of 2 represents mild cytotoxicity with > 80% of the monolayer present and < 20% are dead cells. A score of 3 represents moderate cytotoxicity with > 50% of the monolayer present and < 50% are dead cells. A score of 4 represents severe cytotoxicity with > 50% of the cells are considered dead. (bar, 50 μm). […]

[3] = plasma, cited from earlier work
[4] = tested on: clinical drug-induced liver injury; details: clinical DILI severity category 1 to 5; cited from earlier work
[5] = tested on: human Liver-Chip (primary human hepatocytes); test: Liver-Chip alanine transaminase (ALT) release in top channel effluent (ELISA); format: cell-based
Description: Cycles 1 to 4 tested 6–8 concentrations in duplicate for each of 10–13 drugs. To determine which sampling strategy was optimal for cycles 1 to 4 (16 doses × 1 replicate, 8 × 2, 5 × 3, or 4 × 4), we generated three different “dose-response” synthetic datasets, each distorted by different noise levels (low, medium, or high). For each of these datasets, we performed curve-fitting analyses and calculated the Root Mean Square Error between the “true” and estimated IC50 parameter. […] Some drugs were also repeated across cycles (on different donors or at different concentrations) to ensure experimental robustness. However, to replicate a more typical study design likely to be carried out by scientists in the pharmaceutical industry, we created cycle 5 with 6 drugs, where each was tested in 4 concentrations in triplicate. For each cycle, chips were dosed with drug over 8 days (referred to as Day 0 through Day 7).
The drug dosing concentrations were determined from the unbound human Cmax of each drug. First, the expected fraction of drug unbound in media with 2% FBS was extrapolated from plasma binding data for each drug. Dosing concentrations were then back calculated such that the unbound fraction in media would reflect relevant multiples of unbound human Cmax (Supplementary Data 1).
On the first dosing day (Day 0), all chips were imaged using the ECHO microscope. Five hundred microliters of effluent was collected from all four reservoirs of the pod and placed in a labeled 96-well plate. After collection, all the remaining media was carefully aspirated before dosing with 3.8 mL of corresponding dosing solution. Dosing occurred on study days 0, 2, and 4 for chips flowing at 30 µL/h, and on days 0, 1, 2, 3, 4, 5, and 6 for chips flowing at 150 µL/h. Effluent collection occurred on days 1, 3, and 7.
Top channel outlet effluents were analyzed to quantify albumin and alanine transaminase (ALT) levels on days 1, 3, and 7 using sandwich ELISA kits (Abcam, Albumin ab179887, ALT ab234578) according to vendor-provided protocols. Frozen (−80 °C) effluent samples were thawed overnight at 4 °C prior to assay. The Hamilton Vantage liquid handling platform was used to manage effluent dilutions (1:500 for albumin, neat for ALT), preparation of standard curves, and addition of antibody cocktail. Absorbance at 450 nm was measured using the SynergyNeo Microplate Reader (BioTek).

human Liver-Chip = test: Liver-Chip DILI prediction: minimum toxic concentration and margin of safety (MOS)-like figure; details: for Chip MOS both donors / Chip MOS donor 1 / Chip MOS donor 2: free IC50 concentration in the assay divided by total concentration of drug in human plasma at Cmax; for Liver-Chip toxicity determination, MOS-like figure against threshold value of 50: not corrected for protein binding, donors one and two;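 on Chip MOS both donors: Toxic concentration is the lowest across albumin IC50 and ALT and morphology endpoints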;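 on Chip MOS donor 1: Toxic concentration is the lowest across albumin IC50 and ALT and morphology endpoints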;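 on Chip MOS donor 2: Toxic concentration is the lowest across albumin IC50 and ALT and morphology endpoints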
Description: Because the fundamental principles of drug action dictate that free (unbound) drug concentrations drive drug effects, we explored an alternative methodology for calculating the MOS-like values by accounting for protein binding using a previously reported approach. Accordingly, we reanalyzed the findings for the 27 drugs in our study by accounting for protein binding.

[6] = tested on: 3D spheroid cultures of primary human hepatocytes; details: cited from earlier work; for Spheroid MOS: 3D hepatic spheroids, previously published data; for Spheroid false negative: Yes/No, also No for drugs not tested in spheroid
[7] = expanded drug list, lowest concentration causing an increase in ALT release, donor 1
[8] = expanded drug list, lowest concentration causing an increase in ALT release, donor 2
[9] = ref Vorrink, S. U., Zhou, Y., Ingelman- Sundberg, M. & Lauschke, V.M. (30)
[10] = lowest concentration causing an increase in cellular morphology score, donor 1
[11] = lowest concentration causing an increase in cellular morphology score, donor 2

## CC(C(=O)O)c1ccc2oc(-c3ccc(Cl)cc3)nc2c1 (stereo not drawn) [Benoxaprofen]
[1]; ref Chatsiricharoenkul, S., Niyomnaitham, Pongnarin, P., Sathirakul, K. & Kongpatanakul, S. (66)
  Human Cmax Total: 149100 nM
[2]; human
  Morphology Donor 1: < 0.1 unbound human Cmax multiplier
  Morphology Donor 2: 100 unbound human Cmax multiplier
[3]; ref Scott, L. J. (69)
  Expected Fraction Unbound in Plasma: 0.01
[4]
  Garside DILI rank: 1
[5]; [7]
  ALT Donor 1: > 100 unbound human Cmax multiplier
[5]; [8]
  ALT Donor 2: 100 unbound human Cmax multiplier
Human Liver-Chip
  Chip MOS both donors: 0.001
  Chip MOS donor 1: 0.001
  Chip MOS donor 2: 0.3
  Liver-Chip toxicity determination, MOS-like figure against threshold value of 50: hepatotoxic
[6]
  Spheroid MOS: >0.7
  Spheroid false negative: Yes

## O=c1[nH]c(=O)n([C@@H]2O[C@H](CO)[C@@H](O)[C@@H]2F)cc1I [FIRU]
[1]; [9]
  Human Cmax Total: *0.64µM
[2]; [10]
  Morphology Donor 1: >300 multiples of the unbound human Cmax
[2]; [11]
  Morphology Donor 2: >300 multiples of the unbound human Cmax
[3]; ref Scott, L. J. (69)
  Expected Fraction Unbound in Plasma: *0.36
[4]
  Garside DILI rank: 5
[5]
  ALT Donor 1: >300 multiples of the unbound human Cmax
  ALT Donor 2: >300 multiples of the unbound human Cmax
Human Liver-Chip
  Chip MOS both donors: >108
  Chip MOS donor 1: >108
  Chip MOS donor 2: >108
[6]
  Spheroid false negative: No

## CC(CCc1ccccc1)NCC(O)c1ccc(O)c(C(N)=O)c1 (stereo not drawn) [Labetalol]
[1]; [9]
  Human Cmax Total: 2680 nM
[2]; human
  Morphology Donor 1: > 100 unbound human Cmax multiplier
  Morphology Donor 2: 100 unbound human Cmax multiplier
[3]; ref Lau, S.W.J. (65)
  Expected Fraction Unbound in Plasma: 0.5
[4]
  Garside DILI rank: 1
[5]; [7]
  ALT Donor 1: > 100 unbound human Cmax multiplier
[5]; [8]
  ALT Donor 2: 100 unbound human Cmax multiplier
Human Liver-Chip
  Chip MOS both donors: 22
  Chip MOS donor 1: 26
  Chip MOS donor 2: 22
  Liver-Chip toxicity determination, MOS-like figure against threshold value of 50: hepatotoxic
[6]
  Spheroid false negative: Yes

## O=C(NC1CCN(CCCCC2(C(=O)NCC(F)(F)F)c3ccccc3-c3ccccc32)CC1)c1ccccc1-c1ccc(C(F)(F)F)cc1 [Lomitapide]
[1]; ref Dawson, S., Stahl, Paul, N., Barber, J. & Kenna, J. G. (71)
  Human Cmax Total: 1.7 nM
[2]; expanded drug list, lowest concentration causing an increase in morphology score, donor 1
  Morphology Donor 1: < 0.1 unbound human Cmax multiplier
[3]; ref Lau, S.W.J. (65)
  Expected Fraction Unbound in Plasma: 0.002
[4]
  Garside DILI rank: 3
[5]; [7]
  ALT Donor 1: > 1000 unbound human Cmax multiplier
Human Liver-Chip; albumin, ALT and morphology endpoints together
  Hepatotoxicity in the Liver-Chip, in words: highly toxic
Human Liver-Chip
  Chip MOS donor 1: 0
[6]
  Spheroid false negative: No

## Cc1cc2c(s1)Nc1ccccc1N=C2N1CCN(C)CC1 [Olanzapine]
[1]; ref Brunton, L. L., Hilal-Dandan, R. & Knollmann, B. C. (72)
  Human Cmax Total: 0.09 nM
[2]; Concentration_Day3 = 1
  Morphology Score: 2 and 1
[2]; Concentration_Day3 = 3
  Morphology Score: 1.333 and 1
[2]; Concentration_Day3 = 10
  Morphology Score: 2 and 1
[2]; Concentration_Day3 = 30
  Morphology Score: 2
[2]; Concentration_Day3 = 100
  Morphology Score: 1.667 and 1.333
[2]; Concentration_Day3 = 300
  Morphology Score: 1.333 and 2
[2]; [10]
  Morphology Donor 1: >300 multiples of the unbound human Cmax
[2]; [11]
  Morphology Donor 2: >300 multiples of the unbound human Cmax
[2]; lowest concentration causing an increase in cellular morphology score, donor 3
  Morphology Donor 3: >300 multiples of the unbound human Cmax
[3]; reference data from the literature, no reference
  Expected Fraction Unbound in Plasma: 0.07
[4]
  Garside DILI rank: 5
[5]; lowest concentration causing an increase in ALT protein, donor 1
  ALT Donor 1: >300 multiples of the unbound human Cmax
[5]; lowest concentration causing an increase in ALT protein, donor 2
  ALT Donor 2: >300 multiples of the unbound human Cmax
[5]; lowest concentration causing an increase in ALT protein, donor 3
  ALT Donor 3: >300 multiples of the unbound human Cmax
Human Liver-Chip
  Chip MOS both donors: >20
  Chip MOS donor 1: >20
  Chip MOS donor 2: >2
[6]
  Spheroid false negative: No

## Cc1cn([C@H]2C=C[C@@H](CO)O2)c(=O)[nH]c1=O [Stavudine]
[1]; ref Xu, J. J. et al. (36)
  Human Cmax Total: 3460 nM
[2]; human
  Morphology Donor 1: 300 unbound human Cmax multiplier
  Morphology Donor 2: 300 unbound human Cmax multiplier
[3]; ref Lau, S.W.J. (65)
  Expected Fraction Unbound in Plasma: 1
[4]
  Garside DILI rank: 1
[5]; [7]
  ALT Donor 1: 300 unbound human Cmax multiplier
[5]; [8]
  ALT Donor 2: > 300 unbound human Cmax multiplier
Human Liver-Chip; 18 drugs tested in both donors
  Liver-Chip toxicity determination, protein-binding-corrected MOS-like figure, threshold 375: detection
Human Liver-Chip
  Chip MOS both donors: 107
  Chip MOS donor 1: 247
  Chip MOS donor 2: 107
  Liver-Chip toxicity determination, MOS-like figure against threshold value of 50: not detected; also recorded: false negative
[6]
  Spheroid MOS: >144
  Spheroid false negative: Yes
[6]; threshold 50
  Toxicity detection in 3D hepatic spheroids: not detected as toxic drugs in spheroids
